This is an account of results in PubChem BioAssay AID2060900 (Molecular Pharmacology Branch, DTP, NCI, 2025).

SMILES strings stand for the structures.

The test concerns 521955-158-R2-J5-PDC complex spheroids, viability. Briefly: Anticancer human tumor 521955-158-R2-J5-PDC patient-derived pancreatic carcinoma cell line growth inhibition [RAS]. The note with it: for viability, T/C: stronger effect = lower value. Put shortly: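 Agents were tested in combination matrices in half-log decrements from a top concentration at or near clinical Cmax (10 microM if undetermined). Targets were multi-cell spheroids of tumour lines plus HUVEC and MSC stromal cells.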

The mark [1] stands for this setting: curve of first compound, second compound 0.00316 µM.
[2] abbreviates: curve of first compound, second compound 0.01 µM.
Setting [3] is: curve of first compound, second compound 0.0316 µM.
[4] abbreviates: curve of first compound, second compound 0.1 µM.
[5] abbreviates: curve of first compound, second compound 0.316 µM.
Setting [6] is: curve of first compound, second compound 1 µM.
Where [7] appears, read: second compound 0.00316 µM, first compound 0.0316 µM.
Setting [8] is: second compound 0.00316 µM, first compound 0.1 µM.
[9] abbreviates: second compound 0.00316 µM, first compound 0.316 µM.
Setting [10] is: second compound 0.00316 µM, first compound 1 µM.
Setting [11] is: second compound 0.00316 µM, first compound 3.16 µM.
Where [12] appears, read: second compound 0.00316 µM, first compound 10 µM.
Where [13] appears, read: second compound 0.01 µM, first compound 0.0316 µM.
Where [14] appears, read: second compound 0.01 µM, first compound 0.1 µM.
Setting [15] is: second compound 0.01 µM, first compound 0.316 µM.
Where [16] appears, read: second compound 0.01 µM, first compound 1 µM.
[17] abbreviates: second compound 0.01 µM, first compound 3.16 µM.
[18] abbreviates: second compound 0.01 µM, first compound 10 µM.
Setting [19] is: second compound 0.0316 µM, first compound 0.0316 µM.
Where [20] appears, read: second compound 0.0316 µM, first compound 0.1 µM.
The mark [21] stands for this setting: second compound 0.0316 µM, first compound 0.316 µM.
Setting [22] is: second compound 0.0316 µM, first compound 1 µM.
The mark [23] stands for this setting: second compound 0.0316 µM, first compound 3.16 µM.
Where [24] appears, read: second compound 0.0316 µM, first compound 10 µM.
Where [25] appears, read: second compound 0.1 µM, first compound 0.0316 µM.
[26] abbreviates: second compound 0.1 µM, first compound 0.1 µM.
Setting [27] is: second compound 0.1 µM, first compound 0.316 µM.
The mark [28] stands for this setting: second compound 0.1 µM, first compound 1 µM.
The mark [29] stands for this setting: second compound 0.1 µM, first compound 3.16 µM.
The mark [30] stands for this setting: second compound 0.1 µM, first compound 10 µM.
The mark [31] stands for this setting: second compound 0.316 µM, first compound 0.0316 µM.
Setting [32] is: second compound 0.316 µM, first compound 0.1 µM.
Where [33] appears, read: second compound 0.316 µM, first compound 0.316 µM.
[34] abbreviates: second compound 0.316 µM, first compound 1 µM.
The mark [35] stands for this setting: second compound 0.316 µM, first compound 3.16 µM.
Setting [36] is: second compound 0.316 µM, first compound 10 µM.
The mark [37] stands for this setting: second compound 1 µM, first compound 0.0316 µM.
[38] abbreviates: second compound 1 µM, first compound 0.1 µM.
[39] abbreviates: second compound 1 µM, first compound 0.316 µM.
Where [40] appears, read: second compound 1 µM, first compound 1 µM.
Setting [41] is: second compound 1 µM, first compound 3.16 µM.
Setting [42] is: second compound 1 µM, first compound 10 µM.
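Note: compound exposure lasted seven days before the viability read.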
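Throughout, for viability, T/C: spheroids also contain HUVEC endothelial cells and mesenchymal stem cells as stroma.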

As for `CC(C)NCC(C(=O)N1CCN(c2ncnc3c2C(C)CC3O)CC1)c1ccc(Cl)cc1` (stereo not given) + C=CC(=O)N1CCN(c2nc(OCC3CCCN3C)nc3c(F)c(-c4nc(N)cc(C)c4C(F)(F)F)c(Cl)cc23)C(C)C1, the IC50 is more than 10 µM under setting [1]; more than 10 µM under setting [2]; more than 10 µM under setting [3]; more than 10 µM under setting [4]; more than 10 µM under setting [5]; more than 10 µM under setting [6]. Further, the viability, T/C is, setting by setting: under setting [7], 95.9%; under setting [8], 93.2%; under setting [9], 99%; under setting [10], 79.7%; under setting [11], 66.4%; under setting [12], 54.6%. Further, the viability, T/C is 77% under setting [13]; 115% under setting [14]; 95.6% under setting [15]; 92.9% under setting [16]; 69.1% under setting [17]; 55% under setting [18]. Further, the viability, T/C under setting [19] was 84.1%; the viability, T/C under setting [20] is 101%; the viability, T/C under setting [21] is 91.8%; the viability, T/C under setting [22] is 94.7%; the viability, T/C under setting [23] was 61.2%; the viability, T/C under setting [24] was 55.1%. For the same compound, the viability, T/C runs as follows: under setting [25], 88.7%; under setting [26], 104%; under setting [27], 113%; under setting [28], 89%; under setting [29], 67.1%; under setting [30], 49.6%. The viability, T/C runs as follows: under setting [31], 105%; under setting [32], 138%; under setting [33], 92.4%; under setting [34], 72.1%; under setting [35], 59.6%; under setting [36], 49.9%. The viability, T/C is 103% under setting [37]; 80.2% under setting [38]; 104% under setting [39]; 71.3% under setting [40]; 61.9% under setting [41]; 55.3% under setting [42].

With `CC1(C)CCC(Nc2ncc(C(F)(F)F)c(-c3c[nH]c4c(P(C)(C)=O)c(C#N)ccc34)n2)CN1` (stereo not given), the viability, T/C reads like this: (compound 0.000949 µM) 104% [middle of 4 runs]; (compound 0.003 µM) 74.5% [middle of 4 runs]; (compound 0.00949 µM) 57.2% [middle of 4 runs]; (compound 0.03 µM) 48.7% [middle of 4 runs]; (compound 0.0949 µM) 52.8% [middle of 4 runs].

Take `NC1c2ccccc2OC12CCN(c1cnc3c(N4CCCc5ncccc54)n[nH]c3n1)CC2` (stereo not given) + C=CC(=O)N1CCN(c2nc(OCC3CCCN3C)nc3c(F)c(-c4nc(N)cc(C)c4C(F)(F)F)c(Cl)cc23)C(C)C1: the IC50 is more than 10 µM under setting [1]; more than 10 µM under setting [2]; more than 10 µM under setting [3]; 10 µM under setting [4]; more than 10 µM under setting [5]; more than 10 µM under setting [6]. The viability, T/C under setting [7] was 69.6%; the viability, T/C under setting [8] was 69.4%; the viability, T/C under setting [9] is 64.4%; the viability, T/C under setting [10] is 61.5%; the viability, T/C under setting [11] was 54.8%; the viability, T/C under setting [12] is 59.3%. Further, the viability, T/C was 68% under setting [13]; 68% under setting [14]; 62.1% under setting [15]; 63.2% under setting [16]; 53.7% under setting [17]; 65.6% under setting [18]. Besides, the viability, T/C is 65.8% under setting [19]; 79.6% under setting [20]; 69.1% under setting [21]; 61.5% under setting [22]; 65.3% under setting [23]; 51.8% under setting [24]. Besides, the viability, T/C was 73% under setting [25]; 79.8% under setting [26]; 55.1% under setting [27]; 57.7% under setting [28]; 51.8% under setting [29]; 58.8% under setting [30]. Moreover, the viability, T/C reads like this: under setting [31], 75.4%; under setting [32], 59.2%; under setting [33], 58.1%; under setting [34], 59.5%; under setting [35], 46.1%; under setting [36], 60.5%. In addition, the viability, T/C was 70.3% under setting [37]; 61.4% under setting [38]; 54.7% under setting [39]; 69.6% under setting [40]; 60.4% under setting [41]; 58.3% under setting [42].

Regarding `CC1(O)CCCC1n1c(=O)c(C(F)F)cc2cnc(NC3CCN(S(C)(=O)=O)CC3)nc21` (stereo not given), the viability, T/C (compound 0.0316 µM) is 92.5% [middle of 4 runs]; the viability, T/C (compound 0.1 µM) was 76.6% [middle of 4 runs]; the viability, T/C (compound 1 µM) was 75.7% [middle of 4 runs]; the viability, T/C (compound 3.16 µM) was 118% [middle of 4 runs]; the viability, T/C (compound 10 µM) is 14.9% [middle of 4 runs]. Also, under “curve of compound”, the 50% inhibitory concentration (IC50) was 5.85 µM [middle of 4 runs].
